Structures are written as SMILES.

For the compound `Cc1nc(C#N)c(NN)o1`, the melting point is 157 to 159 °C.

With `CC(N)c1nc(-c2ccccc2)c[nH]1` (stereo not drawn), the melting point was in the range of 129 to 131 °C.

The compound `Cc1cc(N)nn1-c1cccc(Cl)c1` displayed a melting point of 58 to 60 °C.

`Nc1cc(F)c(-n2cccn2)cc1N` gave a melting point of 101 to 103 °C.

Take `NNC(=O)c1n[nH]c(=O)c2ccccc12`: the melting point fell in the range of 239 to 241 °C.

In turn, `COC(=O)C1(O)CCN(Cc2ccccc2)CC1` displayed a melting point of 75 to 77 °C.

Regarding `CS(=O)(=O)c1ccc(O)c(N)c1`, the melting point was in the range of 155 to 157 °C.

`O=C(O)c1ccc2c(c1)CC(c1ccccc1)OC2=O` (stereo not drawn): the melting point lay in the range of 310 to 312 °C.

The compound `Cc1sc(N)nc1-c1cccc(Cl)c1` yielded a melting point of 90 to 94 °C.

For `CNC(c1ccc(Cl)cc1)c1ccc(Cl)cc1`, the melting point is 49 to 51 °C.

For the compound `CC(NC(=O)OCC(F)(F)F)c1nncn1C` (stereo not drawn), the melting point is 103 to 105 °C.

`CCOc1ccc2c(c1)C=C(C(=O)O)CO2` registered a melting point of 186 to 188 °C.

Compound `COC(=O)c1cnn2c1CCCC2` displayed a melting point of 64 to 66 °C.

For `Cc1nn(-c2ccc(Cl)cc2)c(C)c1CC(=O)O`, the melting point was in the range of 178 to 180 °C.

On to `Cn1ncc(C(=O)O)c1Br`, for which the melting point is 202 to 204 °C.

In turn, `COc1cccc(C2(C(=O)O)CCCC2)c1` came in with a melting point of 125 to 127 °C.

`COc1cc(C(=O)Oc2ccc(C=O)cc2)cc(OC)c1OC` gave a melting point of 113 to 115 °C.

In the case of `NC(=O)c1ccccc1N1CCC(N)CC1`, the melting point lay within 143 to 145 °C.

As to `COC(=O)C(CC(C)C)NC(N)=O` (stereo not drawn), the melting point is 68 to 70 °C.

Take `Clc1noc(-c2cccs2)n1`: the melting point lay within 37 to 39 °C.

`O=C(O)c1c[nH]c2ccccc2c1=O`: the melting point is 250 to 252 °C.

On to `Cc1nc(CC(N)=NO)no1`, for which the melting point was 142 to 144 °C.

`O=C(O)CCCNS(=O)(=O)c1ccc2c(c1)CCCC2`: the melting point fell in the range of 130 to 132 °C.

`CC(C)(C)OC(=O)N1CCCCC1C#N` (stereo not drawn) displayed a melting point of 62 to 66 °C.

Turning to `O=C(O)CNC(=O)C1CCC1`, the melting point fell in the range of 107 to 109 °C.

For `CCOC(=O)c1oc2ccccc2c1CBr`, the melting point was 77 to 79 °C.

`CC(C)(Nc1ccc([N+](=O)[O-])cc1)C(=O)O` returned a melting point of 167 to 169 °C.

`COC(=O)C(C)Oc1ccc(F)cc1Br` (stereo not drawn) returned a melting point of 38 to 40 °C.

With `NC(Cc1nc2ccccc2[nH]1)=NO`, the melting point was 138 to 140 °C.

Regarding `CCCCc1ccc(NC(=O)/C=N/O)cc1`, the melting point is 120 to 122 °C.

In turn, `Nc1ccccc1N1CCC(O)CC1` gave a melting point of 117 to 119 °C.

`CC(C)(C)n1cc(C#N)cc1NC(=O)OCC(F)(F)F` had a melting point of 147 to 149 °C.

For the compound `O=C1CCCc2cc(C(=O)O)ccc2N1`, the melting point was 267 to 269 °C.

Compound `COCCOc1ccc(C(=O)O)cc1[N+](=O)[O-]` registered a melting point of 134 to 136 °C.

In turn, `Nc1cccc(Oc2ncccn2)c1` displayed a melting point of 125 to 127 °C.

`Cc1noc(-c2ccnc(Cl)c2)n1` had a melting point of 65 to 67 °C.

Regarding `O=S(=O)(Nc1nccs1)c1ccccc1`, the melting point lay in the range of 169 to 171 °C.

In turn, `Nc1cnn(-c2ccccn2)c1` showed a melting point of 79 to 81 °C.

In turn, `CCOc1ccccc1NC1=NCCS1` displayed a melting point of 55 to 57 °C.

Take `O=S(=O)(c1ccc(Cl)c(N=C=S)c1)N1CCOCC1`: the melting point lay in the range of 118 to 120 °C.

As to `N#Cc1ccc(N2CCCC(N)C2=O)cc1` (stereo not drawn), the melting point fell in the range of 101 to 103 °C.

For the compound `O=C(NC1CCCC1)c1ccc(Cl)nn1`, the melting point fell in the range of 139 to 141 °C.

Compound `Cc1cc(Cl)nc(-c2ccc([N+](=O)[O-])cc2)n1` displayed a melting point of 184 to 186 °C.

As for `c1ccc(-c2cncc(-c3ccccc3)n2)cc1`, the melting point lay within 86 to 88 °C.

The compound `O=C(NCCO)c1ccccc1C(F)(F)F` had a melting point of 61 to 63 °C.

Compound `COc1ccc(C=NO)cc1OCc1ccccc1` showed a melting point of 75 to 77 °C.

`CC(C)(C)n1nc[nH]c1=O`: the melting point is 219 to 221 °C.

Turning to `Cc1ccc(C)c(S(=O)(=O)N2CCN(C(=O)CCC(=O)O)CC2)c1`, the melting point lay within 143 to 145 °C.

`CC(=O)c1c(C)oc(N)c1C#N` had a melting point of 241 to 243 °C.

In the case of `COC(=O)c1ccc(OCC2CO2)cc1` (stereo not drawn), the melting point lay within 59 to 61 °C.

On to `COc1ccc(N2CCC(=O)CC2)cc1`, for which the melting point was in the range of 66 to 68 °C.

On to `Cc1ccccc1CNC(=O)C(C)Cl` (stereo not drawn), for which the melting point lay in the range of 108 to 110 °C.

`COCCCC(=O)c1ccc(Br)cc1` had a melting point of 53 to 55 °C.

The compound `N#Cc1ccc(OCC2CO2)cc1` (stereo not drawn) showed a melting point of 64 to 66 °C.

Take `Cc1ccc(-c2nnn(CC(=O)O)n2)cc1`: the melting point is 188 to 190 °C.

`O=C(O)c1ccc(C=C2NC(=S)N(c3ccc(F)cc3)C2=O)cc1` displayed a melting point of 349 to 351 °C.

The compound `NC(=O)CC1CC2CCC1C2` (stereo not drawn) registered a melting point of 152 to 154 °C.

`O=C1NC(=O)C2(CCC2)N1` came in with a melting point of 222 to 224 °C.

As for `CC(C)c1ccc(C(=O)O)c(O)c1`, the melting point was 93 to 95 °C.

In turn, `Cc1ccnc(S(N)(=O)=O)c1` displayed a melting point of 163 to 165 °C.

On to `O=C1CSC(C(F)(F)F)O1` (stereo not drawn), for which the melting point is 65 to 67 °C.

As to `Nc1nncn1Cc1ccccc1`, the melting point was in the range of 210 to 212 °C.

In the case of `O=C(O)c1nc(Cl)cnc1Br`, the melting point is 99 to 101 °C.

Regarding `c1ccc2c(c1)CN1CCCC1CN2` (stereo not drawn), the melting point was 107 to 109 °C.

With `O=C(O)c1ccccc1NCCC1=CCCCC1`, the melting point was 129 to 131 °C.

For the compound `Cc1cc(Cl)c(Cl)cc1[N+](=O)[O-]`, the melting point lay in the range of 57 to 59 °C.

In the case of `Clc1nccn2cnnc12`, the melting point lay within 195 to 197 °C.

In turn, `CC(NC(N)=O)C1CC2CCC1C2` (stereo not drawn) showed a melting point of 167 to 169 °C.

In the case of `CCOc1cc2nccc(Cl)c2cc1OCC`, the melting point lay within 72 to 74 °C.

Take `CCN(C(=O)N1CCC(C(=O)O)CC1)C(C)C`: the melting point fell in the range of 107 to 109 °C.

As to `COc1cc(C(=O)O)ccc1OCc1cccnc1`, the melting point was in the range of 179 to 181 °C.

`COC(=O)NC(C)(C)C(=O)O`: the melting point lay within 154 to 156 °C.

`CCCC(C)C(N)C(=O)O` (stereo not drawn) returned a melting point of 259 to 261 °C.

In turn, `CCOC(=O)c1[nH]c2c(c1C)C(=O)CCC2` gave a melting point of 159 to 161 °C.

As for `O=C(O)c1cccc(Oc2nccs2)c1`, the melting point lay within 102 to 104 °C.

The compound `O=C(O)c1cc(Br)ccc1F` came in with a melting point of 179 to 182 °C.

The compound `CC(=O)N(c1nc(CCl)cs1)c1ccccc1F` gave a melting point of 150 to 155 °C.

Compound `N#Cc1c(O)c(Cl)c(Cl)c(C#N)c1Cl` displayed a melting point of 256 to 258 °C.

In the case of `O=C(O)C1CC(=O)N(CCc2ccccc2)C1` (stereo not drawn), the melting point was 188 to 190 °C.

In the case of `CCOc1cc(N)ccc1OC`, the melting point is 77 to 79 °C.

As for `O=C(CCl)Nc1ccc2c(c1)C(=O)c1ccccc1C2=O`, the melting point is 298 to 300 °C.

Turning to `NC(=S)Cc1ccc(F)cc1`, the melting point was in the range of 109 to 111 °C.

Compound `O=C(O)c1ccc(Oc2ccc(Cl)cn2)cc1` displayed a melting point of 215 to 217 °C.

Regarding `NNC(=O)CSc1ccccc1O`, the melting point fell in the range of 134 to 136 °C.

As for `N#Cc1cccc(OCC(F)F)n1`, the melting point is 49 to 51 °C.

As for `NC(=NO)C1CN(Cc2ccccc2)CCO1` (stereo not drawn), the melting point is 116 to 118 °C.

With `COc1ccc(Oc2ccc(S(N)(=O)=O)cc2)cc1`, the melting point lay in the range of 169 to 171 °C.

Take `CCOC(=O)CN1C(=O)C(=O)c2ccccc21`: the melting point lay in the range of 127 to 129 °C.

The values are drawn from a melting point compilation (Tetko et al.).
